Measured values from patent US20210221812A1, “MATRINE a-KETOAMINE COMPOUNDS, PREPARATION METHOD THEREFOR AND USE THEREOF” (SHANGHAI XINGYE PHARMACEUTICAL TECHNOLOGY CO., LTD, priority 2018, published 2021).
Where two headings read alike, the source gives them in different places.

How the values were obtained:
Lovo cells = test: MTT tumor cell growth inhibition, Lovo; assay type: cell-based; conditions: 48 h, read-out: Tumors growth-inhibitory activity (IC50) Lovo
Description: (§1) Using MTT method to determine the growth inhibition activity of the matrine compounds on Lovo, MGC-803, Mia-paca2, HpeG-2, A549, k562, and Panc-1 cells in vitro. Logarithmic growth phase of Lovo, MGC-803, Mia-paca2, HpeG-2, A549, k562, Panc-1 cells were inoculated into 96-well plates (purchased from Institute of Biochemical Cells, Chinese Academy of Sciences, and cultured according to conventional tumor cell culture methods) at a density of 4×10^4/mL and 180 μL/well; after the cells adhered to the wall, 20 μL of drug solution was added to each well and matined the final drug concentrations were 0.1 μM, 1 μM, 10 μM, 50 μM, 100 μM respectively. After 48 h, 5 mg/mL MTT solution was added (20 μL/well) and maintained in a CO2 incubator for 3-4 h. After that, discarding the supernatant carefully, and DMSO was added (200 μL/well) when the residual liquid was air-dried, and shook for 0.5-1 h until the residual crystals was dissolved. The absorbance OD was measured at 492 nm by a microplate reader. GraphPad Prism 5 software was used to calculate the IC50 value.

MGC-803 cells = test: MTT tumor cell growth inhibition, MGC-803; assay type: cell-based; conditions: 48 h, read-out: Tumors growth-inhibitory activity (IC50) MGC-803
Description: as §1

Mia-paca2 cells = test: MTT tumor cell growth inhibition, Mia-paca2; assay type: cell-based; conditions: read-out: Tumors growth-inhibitory activity (IC50) Mia-paca2
Description: as §1

HpeG-2 cells = test: MTT tumor cell growth inhibition, HpeG-2; assay type: cell-based; conditions: 48 h, read-out: Tumors growth-inhibitory activity (IC50) HpeG-2
Description: as §1

k562 cells = test: MTT tumor cell growth inhibition, k562; assay type: cell-based; conditions: 48 h, read-out: Tumors growth-inhibitory activity (IC50) k562
Description: as §1

A549 cells = test: MTT tumor cell growth inhibition, A549; assay type: cell-based; conditions: 48 h, read-out: Tumors growth-inhibitory activity (IC50) A549
Description: as §1

Panc-1 cells = test: MTT tumor cell growth inhibition, Panc-1; assay type: cell-based; conditions: 48 h, read-out: Tumors growth-inhibitory activity (IC50) Panc-1
Description: as §1

TNF-α = TNF-α activity inhibiting assay (LPS-stimulated peripheral blood, ELISA); assay type: cell-based, human; conditions: compound 20 μM, LPS 10 ng/mL, 6 hours, diluted peripheral blood of healthy volunteers; for inhibition at 20 µM: Homo sapiens, read-out: TNF-α inhibition rate (%)
Description: Methods: Peripheral blood from healthy volunteers was collected with EDTA anticoagulant tubes. After being diluted 5-fold with 1640 medium (Gibco, USA), the blood was added to 96-well cell culture plates (Costar, USA) and then treated with 10 μL solution of the compound of general formula (I) of the present invention in DMSO (Sigma, USA), the final concentration of the compound was 20 μM with the final concentration of DMSO was 0.2%. After incubation for 60 minutes in an incubator at 37° C. under 5% CO2, 10 μL LPS (Sigma, USA) was added to the reaction system, and the final concentration was 10 ng/mL. After further culturing for 6 hours in the incubator at 37° C. under 5% CO2, the supernatant was collected. The content of TNF-α was determined by ELISA (BD Biosciences, USA). Absorbance was detected at OD450 nm with a microplate reader, with OD 650 nm as reference. The control, a solution containing 0.2% DMSO medium, was as 0% inhibition. Raw data and standard curves were recorded. The four-parameter drug inhibition curve was plotted by XL-fit software and the inhibition rate of each compound was calculated.

NC1CC[C@@H]2[C@H]3CCCN4CCC[C@@H](CN2C1=O)[C@@H]34 (some centres unmarked) [Compound M-3, 14-amino-matrine]
IC50 (Lovo cells; Homo sapiens): 50 to 100 µM
IC50 (MGC-803 cells; Homo sapiens): > 100 µM
IC50 (Mia-paca2 cells; Homo sapiens, MIA PaCa-2, 48 h): > 100 µM
IC50 (HpeG-2 cells): 50 to 100 µM
IC50 (k562 cells; Homo sapiens): 50 to 100 µM
IC50 (A549 cells; Homo sapiens): 50 to 100 µM
IC50 (Panc-1 cells; Homo sapiens): > 100 µM

O=C1c2cccc(F)c2C(=O)N1C1CC[C@@H]2[C@H]3CCCN4CCC[C@@H](CN2C1=O)[C@@H]34 (some centres unmarked) [GJD 03]
inhibition at 20 µM (TNF-α): > 50%

O=C1c2cccc(Cl)c2C(=O)N1C1CC[C@@H]2[C@H]3CCCN4CCC[C@@H](CN2C1=O)[C@@H]34 (some centres unmarked) [GJD 04]
inhibition at 20 µM (TNF-α): > 50%

O=C1c2cccc([N+](=O)[O-])c2C(=O)N1C1CC[C@@H]2[C@H]3CCCN4CCC[C@@H](CN2C1=O)[C@@H]34 (some centres unmarked) [GJD 05]
inhibition at 20 µM (TNF-α): > 50%

Cc1cccc2c1C(=O)N(C1CC[C@@H]3[C@H]4CCCN5CCC[C@@H](CN3C1=O)[C@@H]45)C2=O (some centres unmarked) [GJD 08]
inhibition at 20 µM (TNF-α): > 50%

COc1cccc2c1C(=O)N(C1CC[C@@H]3[C@H]4CCCN5CCC[C@@H](CN3C1=O)[C@@H]45)C2=O (some centres unmarked) [GJD 09]
inhibition at 20 µM (TNF-α): > 50%

O=C1c2cccc(O)c2C(=O)N1C1CC[C@@H]2[C@H]3CCCN4CCC[C@@H](CN2C1=O)[C@@H]34 (some centres unmarked) [GJD 10]
TNF-α inhibition rate (%) (TNF-α): ≥50%

C#Cc1cccc2c1C(=O)N(C1CC[C@@H]3[C@H]4CCCN5CCC[C@@H](CN3C1=O)[C@@H]45)C2=O (some centres unmarked) [GJD 11]
inhibition at 20 µM (TNF-α): < 50%

CC(C)Nc1cccc2c1C(=O)N(C1CC[C@@H]3[C@H]4CCCN5CCC[C@@H](CN3C1=O)[C@@H]45)C2=O (some centres unmarked) [GJD 12]
inhibition at 20 µM (TNF-α): > 50%

CC(=O)Nc1cccc2c1C(=O)N(C1CC[C@@H]3[C@H]4CCCN5CCC[C@@H](CN3C1=O)[C@@H]45)C2=O (some centres unmarked) [GJD 13]
inhibition at 20 µM (TNF-α): > 50%

CS(=O)(=O)Nc1cccc2c1C(=O)N(C1CC[C@@H]3[C@H]4CCCN5CCC[C@@H](CN3C1=O)[C@@H]45)C2=O (some centres unmarked) [GJD 14]
inhibition at 20 µM (TNF-α): > 50%

COc1ccc2c(c1)C(=O)N(C1CC[C@@H]3[C@H]4CCCN5CCC[C@@H](CN3C1=O)[C@@H]45)C2=O (some centres unmarked) [GJD 16]
IC50 (Lovo cells; Homo sapiens): 50 to 100 µM
IC50 (MGC-803 cells; Homo sapiens): 50 to 100 µM
IC50 (Mia-paca2 cells; Homo sapiens, MIA PaCa-2, 48 h): 50 to 100 µM
IC50 (HpeG-2 cells): < 50 µM
IC50 (k562 cells; Homo sapiens): 50 to 100 µM
IC50 (A549 cells; Homo sapiens): > 100 µM
IC50 (Panc-1 cells; Homo sapiens): > 100 µM

Nc1ccc2c(c1)C(=O)N(C1CC[C@@H]3[C@H]4CCCN5CCC[C@@H](CN3C1=O)[C@@H]45)C2=O (some centres unmarked) [GJD 18]
inhibition at 20 µM (TNF-α): < 50%

COc1cc2c(cc1OC)C(=O)N(C1CC[C@@H]3[C@H]4CCCN5CCC[C@@H](CN3C1=O)[C@@H]45)C2=O (some centres unmarked) [GJD 19]
inhibition at 20 µM (TNF-α): < 50%

O=C1c2ccccc2C(=O)N1C1=CC[C@@H]2[C@H]3CCCN4CCC[C@@H](CN2C1=O)[C@@H]34 [GJD 22]
inhibition at 20 µM (TNF-α): > 50%

Cc1cccc2c1C(=O)N(C1=CC[C@@H]3[C@H]4CCCN5CCC[C@@H](CN3C1=O)[C@@H]45)C2=O [GJD 24]
IC50 (Lovo cells): < 50 µM
IC50 (MGC-803 cells): 50 to 100 µM
IC50 (Mia-paca2 cells; 48 h): 50 to 100 µM
IC50 (HpeG-2 cells): < 50 µM
IC50 (k562 cells): < 50 µM
IC50 (A549 cells): < 50 µM
IC50 (Panc-1 cells): 50 to 100 µM

O=C1[C@@H](N2C(=O)c3ccccc3C2=O)CC[C@@H]2[C@H]3CCCN4CCC[C@@H](CN12)[C@@H]34 [GJD 25]
IC50 (Lovo cells; Homo sapiens): 50 to 100 µM
IC50 (MGC-803 cells; Homo sapiens): > 100 µM
IC50 (Mia-paca2 cells; Homo sapiens, MIA PaCa-2, 48 h): > 100 µM
IC50 (HpeG-2 cells): 50 to 100 µM
IC50 (k562 cells; Homo sapiens): 50 to 100 µM
IC50 (A549 cells; Homo sapiens): 50 to 100 µM
IC50 (Panc-1 cells; Homo sapiens): > 100 µM

Nc1cccc2c1C(=O)N(C1CC[C@@H]3[C@H]4CCCN5CCC[C@H](CN3C1=O)[C@@H]45)C2=O (some centres unmarked) [GJD 27]
inhibition at 20 µM (TNF-α): > 50%

O=C1c2ccccc2C(=O)N1C1CC[C@@H]2[C@H]3CCCN4CCC[C@H](CN2C1=O)[C@@H]34 (some centres unmarked) [GJD 28]
inhibition at 20 µM (TNF-α): > 50%

Cc1cccc2c1C(=O)N(C1CC[C@@H]3[C@H]4CCCN5CCC[C@H](CN3C1=O)[C@@H]45)C2=O (some centres unmarked) [GJD 29]
inhibition at 20 µM (TNF-α): > 50%

O=C1c2ccccc2CN1C1CC[C@@H]2[C@H]3CCCN4CCC[C@@H](CN2C1=O)[C@@H]34 (some centres unmarked) [GJD 30]
inhibition at 20 µM (TNF-α): < 50%

CC(=O)Nc1cccc2c1CN(C1CC[C@@H]3[C@H]4CCCN5CCC[C@@H](CN3C1=O)[C@@H]45)C2=O (some centres unmarked) [GJD 33]
inhibition at 20 µM (TNF-α): > 50%

O=C(Nc1cccc2c1CN(C1CC[C@@H]3[C@H]4CCCN5CCC[C@@H](CN3C1=O)[C@@H]45)C2=O)c1ccccc1 (some centres unmarked) [GJD 34]
IC50 (Lovo cells; Homo sapiens): 50 to 100 µM
IC50 (MGC-803 cells; Homo sapiens): 50 to 100 µM
IC50 (Mia-paca2 cells; Homo sapiens, MIA PaCa-2, 48 h): 50 to 100 µM
IC50 (HpeG-2 cells): < 50 µM
IC50 (k562 cells; Homo sapiens): < 50 µM
IC50 (A549 cells; Homo sapiens): 50 to 100 µM
IC50 (Panc-1 cells; Homo sapiens): 50 to 100 µM

Nc1cccc2c1CN(C1CC[C@@H]3[C@H]4CCCN5CCC[C@@H](CN3C1=O)[C@@H]45)C2=O (some centres unmarked) [GJD 35]
inhibition at 20 µM (TNF-α): > 50%

Cc1cccc2c1CN(C1CC[C@@H]3[C@H]4CCCN5CCC[C@@H](CN3C1=O)[C@@H]45)C2=O (some centres unmarked) [GJD 38]
TNF-α inhibition rate (%) (TNF-α): >50%

Nc1ccc2c(c1)C(=O)N(C1CC[C@@H]3[C@H]4CCCN5CCC[C@@H](CN3C1=O)[C@@H]45)C2 (some centres unmarked) [GJD 41]
inhibition at 20 µM (TNF-α): > 50%

Cc1cccc2c1CN(C1CC[C@@H]3[C@H]4CCCN5CCC[C@H](CN3C1=O)[C@@H]45)C2=O (some centres unmarked) [GJD 44]
inhibition at 20 µM (TNF-α): > 50%

Nc1ccc(S(=O)(=O)NC2=CC[C@@H]3[C@H]4CCCN5CCC[C@@H](CN3C2=O)[C@@H]45)cc1 [GJD 47]
IC50 (Lovo cells; Homo sapiens): 50 to 100 µM
IC50 (MGC-803 cells; Homo sapiens): > 100 µM
IC50 (Mia-paca2 cells; Homo sapiens, MIA PaCa-2, 48 h): > 100 µM
IC50 (HpeG-2 cells): 50 to 100 µM
IC50 (k562 cells; Homo sapiens): 50 to 100 µM
IC50 (A549 cells; Homo sapiens): 50 to 100 µM
IC50 (Panc-1 cells; Homo sapiens): > 100 µM

Nc1ccccc1C(=O)NC1CC[C@@H]2[C@H]3CCCN4CCC[C@@H](CN2C1=O)[C@@H]34 (some centres unmarked) [GJD 49]
inhibition at 20 µM (TNF-α): > 50%

O=C(NC1CC[C@@H]2[C@H]3CCCN4CCC[C@@H](CN2C1=O)[C@@H]34)c1ccccc1O (some centres unmarked) [GJD 50]
inhibition at 20 µM (TNF-α): > 50%

COc1ccc(C(=O)NC2CC[C@@H]3[C@H]4CCCN5CCC[C@@H](CN3C2=O)[C@@H]45)cc1OC1CCCC1 (some centres unmarked) [GJD 53]
inhibition at 20 µM (TNF-α): > 50%

CCOc1cc(C(=O)NC2CC[C@@H]3[C@H]4CCCN5CCC[C@@H](CN3C2=O)[C@@H]45)ccc1OC (some centres unmarked) [GJD 54]
inhibition at 20 µM (TNF-α): > 50%

O=C1c2cccc(F)c2C(=O)N1C1CC[C@@H]2[C@H]3CCC[N+]4([O-])CCC[C@@H](CN2C1=O)[C@@H]34 (some centres unmarked) [GJD 65]
TNF-α inhibition rate (%) (TNF-α): ≥50%

O=C1CCC[C@@H]2[C@H]3CCC[N+]4([O-])CCC[C@@H](CN12)[C@@H]34 (some centres unmarked) [Oxymatrine, oxymatrine, reference compound]
inhibition at 20 µM (TNF-α): < 50%

O=C1CCC[C@@H]2[C@H]3CCCN4CCC[C@H](CN12)[C@@H]34 [Sophoridine, sophoridine, reference compound]
inhibition at 20 µM (TNF-α): < 50%
